Results reported in ChEMBL document CHEMBL5506042, “Discovery of the Clinical Candidate IDOR-1117-2520: A Potent and Selective Antagonist of CCR6 for Autoimmune Diseases” (J Med Chem, 2024).
pIC50: −log10 of the molar value. Converted amounts (≈) assume the structure as drawn.

How the values were obtained:
[1] = AUC in Beagle dog at 3 mg/kg, po; assay type: ADME, organism-based, Canis lupus familiaris; details: in vivo
[2] = AUC in Beagle dog at 10 mg/kg, po; assay type: ADME, organism-based, Canis lupus familiaris; details: in vivo
[3] = molecular target: T1, Solute carrier organic anion transporter family member 1B3 (Homo sapiens, UniProt Q9NPD5); assay: Inhibition of OATP1B3 (unknown origin)
T1 sequence (Q9NPD5 whole entry): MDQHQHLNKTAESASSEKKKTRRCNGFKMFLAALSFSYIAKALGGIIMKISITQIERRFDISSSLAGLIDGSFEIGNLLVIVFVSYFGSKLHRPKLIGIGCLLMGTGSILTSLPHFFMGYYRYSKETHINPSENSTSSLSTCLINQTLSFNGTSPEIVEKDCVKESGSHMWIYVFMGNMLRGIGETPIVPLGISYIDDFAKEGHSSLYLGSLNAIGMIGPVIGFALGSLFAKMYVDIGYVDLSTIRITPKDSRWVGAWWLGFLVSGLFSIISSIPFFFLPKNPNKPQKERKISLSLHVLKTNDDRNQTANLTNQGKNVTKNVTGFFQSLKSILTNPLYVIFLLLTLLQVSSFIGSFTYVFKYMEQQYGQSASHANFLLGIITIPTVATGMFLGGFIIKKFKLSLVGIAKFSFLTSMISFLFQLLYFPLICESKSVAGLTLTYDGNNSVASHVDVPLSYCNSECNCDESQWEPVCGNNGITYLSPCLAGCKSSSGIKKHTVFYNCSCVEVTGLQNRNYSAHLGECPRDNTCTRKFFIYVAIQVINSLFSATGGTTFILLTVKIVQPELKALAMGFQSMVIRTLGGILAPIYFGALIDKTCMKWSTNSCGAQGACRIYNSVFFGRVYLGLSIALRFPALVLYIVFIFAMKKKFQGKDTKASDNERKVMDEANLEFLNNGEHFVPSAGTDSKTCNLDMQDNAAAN

[4] = Intrinsic clearance in human hepatocytes in presence of ABT measured per million cells; assay type: ADME, cell-based, Hepatocyte; details: with ABT, read-out: CLH
[5] = Cmax in Beagle dog at 3 mg/kg, po; assay type: ADME, organism-based, Canis lupus familiaris; details: in vivo
[6] = Tmax in Beagle dog at 1 mg/kg, iv; assay type: ADME, organism-based, Canis lupus familiaris; details: in vivo
[7] = Fraction unbound in dog plasma at 1 uM by rapid equilibrium dialysis based LC-MS/MS analysis; assay type: ADME, cell-free, Canis lupus familiaris
[8] = Solubility of the compound at pH <[…] at 37 degC; assay type: physicochemical
[9] = Clearance in Beagle dog at 1 mg/kg, iv; assay type: ADME, organism-based, Canis lupus familiaris; details: in vivo
[10] = Oral bioavailability in Wistar rat at 100 mg/kg; assay type: ADME, organism-based; details: in vivo
[11] = Volume of distribution at steady state in Wistar rat at 3 mg/kg, iv; assay type: ADME, organism-based; details: in vivo, read-out: Vdss
[12] = AUC in Wistar rat at 100 mg/kg, po; assay type: ADME, organism-based; details: in vivo
Cytochrome P450 3A4 [13] = molecular target: T2, Cytochrome P450 3A4 (Homo sapiens, UniProt P08684); assay: Time dependent inhibition of CYP3A4 (unknown origin); assay type: ADME
T2 sequence (P08684 whole entry): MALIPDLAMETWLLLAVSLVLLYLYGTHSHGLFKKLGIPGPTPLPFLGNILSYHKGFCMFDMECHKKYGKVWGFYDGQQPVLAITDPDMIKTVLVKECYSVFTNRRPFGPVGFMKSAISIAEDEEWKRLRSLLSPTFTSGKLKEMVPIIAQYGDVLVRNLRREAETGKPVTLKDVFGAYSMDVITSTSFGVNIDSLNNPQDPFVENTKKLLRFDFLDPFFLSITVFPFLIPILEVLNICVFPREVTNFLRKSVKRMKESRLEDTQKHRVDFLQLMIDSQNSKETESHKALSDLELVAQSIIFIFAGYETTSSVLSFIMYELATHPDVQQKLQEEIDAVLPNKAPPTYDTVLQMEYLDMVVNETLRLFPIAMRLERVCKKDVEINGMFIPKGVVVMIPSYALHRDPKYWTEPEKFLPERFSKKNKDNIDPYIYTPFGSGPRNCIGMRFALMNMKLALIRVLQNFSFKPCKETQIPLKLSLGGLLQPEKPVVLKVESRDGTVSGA

[14] = Intrinsic clearance in human liver microsomes at 1 uM measured for 15 mins in presence of NADPH regenerating system measured per mg protein by LC-MS/MS analysis; assay type: ADME, Microsome; details: read-out: CLH
[15] = Intrinsic clearance in human hepatocytes measured per million cells; assay type: ADME, cell-based, Hepatocyte; details: read-out: CLH
Cytochrome P450 2D6 = Cytochrome P450 2D6 (Homo sapiens, UniProt P10635); assay: Inhibition of CYP2D6 (unknown origin); assay type: ADME
Cytochrome P450 2D6, sequence (P10635 whole entry): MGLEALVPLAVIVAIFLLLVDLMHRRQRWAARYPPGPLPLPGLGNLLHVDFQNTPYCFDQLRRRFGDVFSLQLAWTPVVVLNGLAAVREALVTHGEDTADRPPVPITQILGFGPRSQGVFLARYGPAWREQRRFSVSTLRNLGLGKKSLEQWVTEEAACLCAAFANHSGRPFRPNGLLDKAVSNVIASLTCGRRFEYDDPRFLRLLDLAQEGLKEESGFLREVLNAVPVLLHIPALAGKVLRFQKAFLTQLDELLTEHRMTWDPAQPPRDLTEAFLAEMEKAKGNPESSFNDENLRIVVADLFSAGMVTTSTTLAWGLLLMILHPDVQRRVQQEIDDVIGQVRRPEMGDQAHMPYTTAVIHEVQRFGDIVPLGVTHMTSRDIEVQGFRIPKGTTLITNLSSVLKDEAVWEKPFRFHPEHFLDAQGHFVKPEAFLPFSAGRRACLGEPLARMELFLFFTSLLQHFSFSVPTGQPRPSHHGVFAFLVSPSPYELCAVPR

[16] = Oral bioavailability in Beagle dog at 3 mg/kg; assay type: ADME, organism-based, Canis lupus familiaris; details: in vivo
[17] = Intrinsic clearance in dog liver microsomes at 1 uM measured for 15 mins in presence of NADPH regenerating system by LC-MS/MS analysis; assay type: ADME, Canis lupus familiaris, Microsome; details: read-out: CLH
[18] = Cmax in Beagle dog at 1 mg/kg, iv; assay type: ADME, organism-based, Canis lupus familiaris; details: in vivo
[19] = molecular target: ATP-dependent translocase ABCB1 (Homo sapiens, UniProt P08183); assay: Inhibition of human MDR1
ATP-dependent translocase ABCB1, sequence (P08183 whole entry): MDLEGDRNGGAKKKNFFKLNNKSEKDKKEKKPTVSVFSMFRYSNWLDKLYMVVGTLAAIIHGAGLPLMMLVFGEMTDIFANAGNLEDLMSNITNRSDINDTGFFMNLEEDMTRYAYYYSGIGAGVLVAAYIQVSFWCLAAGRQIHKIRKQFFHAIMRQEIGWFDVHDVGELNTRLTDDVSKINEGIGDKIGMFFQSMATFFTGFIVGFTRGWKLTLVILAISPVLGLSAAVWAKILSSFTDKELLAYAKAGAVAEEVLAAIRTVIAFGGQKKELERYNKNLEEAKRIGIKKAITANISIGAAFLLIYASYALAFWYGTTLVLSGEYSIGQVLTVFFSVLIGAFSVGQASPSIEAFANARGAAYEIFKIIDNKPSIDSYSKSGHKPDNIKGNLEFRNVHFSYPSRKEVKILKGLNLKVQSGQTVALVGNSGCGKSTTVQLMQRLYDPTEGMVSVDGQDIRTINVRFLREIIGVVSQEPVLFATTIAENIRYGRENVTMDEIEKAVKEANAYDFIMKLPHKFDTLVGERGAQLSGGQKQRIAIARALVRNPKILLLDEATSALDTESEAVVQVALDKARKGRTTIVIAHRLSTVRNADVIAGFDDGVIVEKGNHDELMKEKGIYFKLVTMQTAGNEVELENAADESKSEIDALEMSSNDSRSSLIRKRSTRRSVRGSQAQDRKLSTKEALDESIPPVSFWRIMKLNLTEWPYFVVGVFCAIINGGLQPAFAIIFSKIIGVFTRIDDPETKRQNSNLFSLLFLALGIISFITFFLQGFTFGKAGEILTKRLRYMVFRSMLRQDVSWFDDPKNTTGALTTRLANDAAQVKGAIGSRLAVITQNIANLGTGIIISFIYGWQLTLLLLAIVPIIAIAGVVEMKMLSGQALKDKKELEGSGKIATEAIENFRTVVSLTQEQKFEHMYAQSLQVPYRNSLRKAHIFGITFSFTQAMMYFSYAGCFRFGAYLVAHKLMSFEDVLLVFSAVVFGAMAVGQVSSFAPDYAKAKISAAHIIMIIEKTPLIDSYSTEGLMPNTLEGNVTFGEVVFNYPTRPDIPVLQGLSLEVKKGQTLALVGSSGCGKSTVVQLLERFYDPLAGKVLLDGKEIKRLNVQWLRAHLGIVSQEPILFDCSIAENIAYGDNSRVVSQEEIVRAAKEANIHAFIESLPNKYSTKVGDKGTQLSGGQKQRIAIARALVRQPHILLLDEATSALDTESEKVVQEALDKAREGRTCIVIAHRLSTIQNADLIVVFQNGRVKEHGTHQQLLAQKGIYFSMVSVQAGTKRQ

[20] = Tmax in Wistar rat at 100 mg/kg, po; assay type: ADME, organism-based; details: in vivo
[21] = Apparent permeability across apical to basolateral side in dog MDCK-II cells; assay type: ADME, cell-based, Canis lupus familiaris
[22] = Tmax in Beagle dog at 3 mg/kg, po; assay type: ADME, organism-based, Canis lupus familiaris; details: in vivo
[23] = Cmax in Wistar rat at 100 mg/kg, po; assay type: ADME, organism-based; details: in vivo
[24] = molecular target: T3, Solute carrier organic anion transporter family member 1B1 (Homo sapiens, UniProt Q9Y6L6); assay: Inhibition of OATP1B1 (unknown origin)
T3 sequence (Q9Y6L6 whole entry): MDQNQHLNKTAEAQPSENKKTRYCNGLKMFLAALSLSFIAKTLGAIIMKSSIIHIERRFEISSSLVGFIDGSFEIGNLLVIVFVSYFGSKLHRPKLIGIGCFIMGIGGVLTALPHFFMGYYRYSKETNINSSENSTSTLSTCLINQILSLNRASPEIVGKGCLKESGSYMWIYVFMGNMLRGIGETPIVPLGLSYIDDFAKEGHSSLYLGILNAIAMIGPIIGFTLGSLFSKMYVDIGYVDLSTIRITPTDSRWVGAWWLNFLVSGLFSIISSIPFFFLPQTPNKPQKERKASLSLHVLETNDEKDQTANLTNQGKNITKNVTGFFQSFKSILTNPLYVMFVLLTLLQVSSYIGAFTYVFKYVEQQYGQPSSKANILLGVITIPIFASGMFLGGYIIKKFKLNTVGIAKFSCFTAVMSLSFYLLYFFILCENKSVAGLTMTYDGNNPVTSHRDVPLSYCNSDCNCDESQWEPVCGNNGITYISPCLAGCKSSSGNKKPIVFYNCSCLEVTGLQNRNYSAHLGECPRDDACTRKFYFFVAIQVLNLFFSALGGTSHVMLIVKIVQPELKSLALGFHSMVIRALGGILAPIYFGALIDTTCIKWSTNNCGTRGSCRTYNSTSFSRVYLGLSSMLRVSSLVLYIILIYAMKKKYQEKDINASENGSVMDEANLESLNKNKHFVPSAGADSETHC

[25] = Oral bioavailability in Beagle dog at 10 mg/kg; assay type: ADME, organism-based, Canis lupus familiaris; details: in vivo
[26] = Solubility of the compound in aqueous medium at pH <[…]; assay type: physicochemical
[27] = Intrinsic solubility of the compound at pH >11.5 using amorphous form of sample; assay type: physicochemical; details: read-out: Intrinsic_solubility
[28] = Clearance in Wistar rat at 3 mg/kg, iv; assay type: ADME, organism-based; details: in vivo
HepaRG = assay: Cytotoxicity against human HepaRG cells assessed as leakage of intracellular LDH at 100 uM incubated for 24 hrs by spectrophotometry; assay type: toxicity, cell-based
Cytochrome P450 3A4 [29] = molecular target: T2, Cytochrome P450 3A4; assay: Inhibition of CYP3A4 (unknown origin); assay type: ADME
Cytochrome P450 2C9 = Cytochrome P450 2C9 (Homo sapiens, UniProt P11712); assay: Inhibition of CYP2C9 (unknown origin); assay type: ADME
Cytochrome P450 2C9, sequence (P11712 whole entry): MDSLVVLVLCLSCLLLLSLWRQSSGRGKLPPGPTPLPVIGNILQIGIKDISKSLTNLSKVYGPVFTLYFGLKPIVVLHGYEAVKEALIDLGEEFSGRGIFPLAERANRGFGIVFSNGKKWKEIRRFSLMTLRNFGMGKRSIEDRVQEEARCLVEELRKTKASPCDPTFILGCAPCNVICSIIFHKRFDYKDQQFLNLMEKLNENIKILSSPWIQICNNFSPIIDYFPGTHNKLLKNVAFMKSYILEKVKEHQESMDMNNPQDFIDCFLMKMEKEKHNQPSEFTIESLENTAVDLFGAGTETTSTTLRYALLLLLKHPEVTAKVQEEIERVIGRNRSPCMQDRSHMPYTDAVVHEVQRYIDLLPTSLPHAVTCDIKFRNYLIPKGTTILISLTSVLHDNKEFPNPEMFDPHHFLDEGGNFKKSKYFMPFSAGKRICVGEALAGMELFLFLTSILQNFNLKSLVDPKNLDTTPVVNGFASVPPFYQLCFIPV

[30] = Half life in Beagle dog at 1 mg/kg, iv; assay type: ADME, organism-based, Canis lupus familiaris; details: in vivo
[31] = AUC in Beagle dog at 1 mg/kg, iv; assay type: ADME, organism-based, Canis lupus familiaris; details: in vivo
[32] = AUC in Wistar rat at 3 mg/kg, iv; assay type: ADME, organism-based; details: in vivo
Cytochrome P450 3A4 [33] = molecular target: T2, Cytochrome P450 3A4; assay: Induction of CYP3A4 (unknown origin); assay type: ADME
[34] = Fraction unbound in human plasma at 1 uM by rapid equilibrium dialysis based LC-MS/MS analysis; assay type: ADME, cell-free
[35] = Half life in Wistar rat at 3 mg/kg, iv; assay type: ADME, organism-based; details: in vivo
[36] = Volume of distribution at steady state in Beagle dog at 1 mg/kg, iv; assay type: ADME, organism-based, Canis lupus familiaris; details: in vivo, read-out: Vdss

AUC [1]: 332 ng·h/mL
AUC [2]: 4160 ng·h/mL
pIC50 [3]: < 4.30
hepatocyte CLint [4]: < 2 µL/min/1e6 cells
Cmax [5]: 956 ng/mL
Tmax [6]: 48 min
fraction unbound at 1 µM [7]: 0.33
solubility [8]: > 10000 µg/mL
clearance [9]: 38 mL/min/kg
bioavailability [10]: 19%
Vd [11]: 23 L/kg
AUC [12]: 2770 ng·h/mL
TDI (Cytochrome P450 3A4 [13]): Not Active
microsomal CLint at […], 1 µM [14]: < 10 µL/min/mg
hepatocyte CLint [15]: 3.6 µL/min/1e6 cells
pIC50 (Cytochrome P450 2D6): 6.82
bioavailability [16]: 25%
microsomal CLint at […], 1 µM [17]: 17 µL/min/mg
Cmax [18]: 103 ng/mL
pIC50 [19]: 4.72
Tmax [20]: 18 min
Papp A→B [21]: 0.3 ×10⁻⁶ cm/s
Tmax [22]: 48 min
Cmax [23]: 822 ng/mL
pIC50 [24]: < 4.30
bioavailability [25]: 95%
solubility [26]: > 100000 µg/mL
solubility [27]: 100 µg/mL (≈ 0.23 mM)
clearance [28]: 110 mL/min/kg
pIC50 (Cytochrome P450 3A4 [29]): < 4.30
pIC50 (Cytochrome P450 2C9): < 4.30
half-life [30]: 282 min
AUC [31]: 436 ng·h/mL
AUC [32]: 443 ng·h/mL
Activity (Cytochrome P450 3A4 [33]): Not Active
fraction unbound at 1 µM [34]: 0.35
half-life [35]: 216 min
Vd [36]: 11 L/kg
Compound: CC(C)c1ccc([C@](O)(c2cccc(-c3noc(C(C)(C)O)n3)c2)C2(C)CN(C)C2)cc1
Activity (HepaRG): Non-Toxic
